Values joined by “and” are separate entries in the source; they are usually repeats but may differ in a detail not shown here. Equal entries are not always repeated. Blank lines part the entries; values can stand above or below the compound they belong to.
How the values were obtained:
PRMT4 = PRMT4 (Homo sapiens, UniProt Q86X55); test: HMT selectivity panel; settings: PRMT4, 50 µM compound
Text: (§1) mM DTT and 0.01% Triton X-100 was used in experiments containing core histone.

PRMT3 = PRMT3 (Homo sapiens, UniProt O60678); test: HMT selectivity panel; settings: PRMT3, 50 µM compound
Text: as §1

[1] = Effect on normal hematopoiesis: complete blood counts and blood parameters
Protocol: At the end point of the experiment blood samples were collected, processed and analyzed for complete blood counts (CBC) and to assess populations of myeloid (CD11b + /Gr-1 + ), B- (B220 + /CD19 + ), and T- (CD3 + ) cells using flow cytometry. […] The analysis of CBC and other blood parameters was performed by the ULAM Animal Diagnostic Laboratory using Element HT5 (HESKA).
(a) Analysis of blood cell counts in
blood cells, RBC – red blood cells, NEU – neutrophiles, LYM – lymphocytes. MONO –
monocytes, EOS – eosinophils, BAS - basophils, PLT - platelets) and other blood parameters (Hgb
– Hemoglobin, HCT- Hematocrit, MCV – Mean corpuscular volume, MCH - Mean corpuscular
hemoglobin, MCHC - Mean corpuscular hemoglobin concentration, RDW – Red cell distribution
(1 picture or pasted object on this page, not shown here)

NSD1 = NSD1 (Homo sapiens, UniProt Q96L73); test: HMT selectivity panel; settings: NSD1, 50 µM compound
Text: as §1

K562 cells = test: Flow cytometry of CD11B expression (differentiation); assay type: cell-based, human; settings: for K562 % CD11B+ cells: 7 days
Protocol: In addition, 1 × 10^5 cells per sample were stained with Zombie Aqua™ dye (1:100 dilution) for 15 min using the Zombie Aqua™ Fixable Viability Kit (Zombie Aqua™ Fixable Viability Kit, Biolegend®) […] and then for 30 min with an anti-CD11B-PE antibody (982606, ICRF44, Biolegend®) or anti-CD11B-Pacific Blue (101224, BD BioLegend) antibody at 1:50 dilution, according to the No-wash Sequential Staining Protocol described by the manufacturer (BioLegend, Zombie Aqua Fixable Viability Kit). Cells were washed twice with 500 µL PBS containing 1% FBS and resuspended in 200 µL PBS with 1% FBS.

[2] = Body weight during treatment in the MV4;11 model
Protocol: Briefly, the 8- to 10-week old female NSG mice (Jackson Laboratory) were intravenously injected with 5 × 10^6 luciferase-expressing MV4;11 cells (received from Dr. Thomas Look, Dana Farber Cancer Institute). […] For imaging, mice were kept anesthetized with isoflurane, and 50 mg/kg luciferin (E1603, Promega) was administered by intraperitoneal injection. Photonic emission was imaged using the in Vivo Imaging System BLI (IVIS, 200) with total imaging time of 10 s for each mouse.
Measurements are reference to the values obtained at the first day of treatment, which were set as

G9a = G9a (Homo sapiens, UniProt Q96KQ7); test: HMT selectivity panel; settings: 50 µM compound
Protocol: as §1
experiments containing nucleosome.
G9a 5 core histone 0.05 mg/mL 1
GLP 5 core histone 0.05 mg/mL 1

MV4;11 cells = test: RNA-seq global gene expression; assay type: cell-based, human
Protocol: Total RNA was prepared from cells collected after 7 days of treatment using RNeasy Mini Kit (74106, Qiagen). 2 µg of total RNA for each sample, as quantified using Nanodrop 2000 UV-Vis spectrophotometer, was submitted to the Next-Generation Sequencing Services of the University of Michigan for RNA Sequencing on the Illumina NovaSeq (S4) Sequencer. ERCC RNA Spike-In Mix (4456740, Invitrogen™) was provided to control for variability in RNA expression.
For analysis of RNA-seq data, Fastq generation was performed using Illumina’s bcl2fastq2 software (v2.17). The cutadapt [https://cutadapt.readthedocs.org/en/stable/] and FastQC [http://www.bioinformatics.babraham.ac.uk/projects/fastqc/] tools wrapped in Trim Galore [http://www.bioinformatics.babraham.ac.uk/projects/trim_galore/] were used to trim low quality bases (Q < 20) and adapter for raw sequences. Reads with length <20 bp were removed after trimming. […] Duplicated reads for pair-end data were removed by SAMtools (v1.5)[41]. Aligned reads were assembled using Cufflinks (v2.2.1) and assembled transcriptome catalog was used as an input for Cuffdiff2[42] to determine gene expression levels (FPKM, Fragments Per Kilobase per Million mapped reads) and differential expression between conditions using default options. Genes with p < 0.05 and fold-change >2 up or down were considered as differentially expressing genes to prepare the Volcano plot, which was generated using the “ggplot2” R package. Gene set analysis was performed and enrichment plots were generated using the “fgsea” package, with the test statistic generated by Cuffdiff2 used to rank genes for gene set enrichment analysis. Fgsea was run using the C2, C5, and C6 curated datasets from MSigDB[44]. Heatmaps for the top 20 ranked genes in the Leading Edge from a given enrichment analysis were generated with the “gplots” package [https://cran.r-project.org/web/packages/gplots/index.html].

SET7/9 = SET7/9 (Homo sapiens, UniProt Q8WTS6); test: HMT selectivity panel; settings: SET7/9, 50 µM compound
Text: Assay conditions for selectivity experiments with a panel of histone
as §1

[3] = test system: human CD34+ cells from cord blood; test: Colony-forming assay with normal hematopoietic progenitor cells; settings: 7 days
Protocol: The experiment was performed twice. […] Mean ± SD, n = 3 biological replicates. […] Two independent experiments were performed in triplicates. Representative graphs are shown. *P < 0.05; **P < 0.01; ****P < 0.0001; NS not significant.

EZH2 = EZH2 (Homo sapiens, UniProt Q15910); test: HMT selectivity panel; settings: EZH2, 50 µM compound
Protocol: as §1
experiments containing nucleosome.
G9a 5 core histone 0.05 mg/mL 1
GLP 5 core histone 0.05 mg/mL 1

[4] = target: ASH1L (amino acids 2046–2330) (Homo sapiens, UniProt Q9NR48); test: Histone methyltransferase (HMT) assay
Protocol: The mixtures of ASH1L and compounds were incubated at room temperature for 1 h. […] The reaction was continued for 1 h at room temperature, then quenched by addition of 10% Trichloroacetic acid (TCA) and then transferred to 96-well filter plates (Millipore sigma, MSFBN6B), washed twice with 10% TCA and then once with 200-proof ethanol. After extensive drying, 70 µL of Microscint-O scintillant (PerkinElmer) was added and counts per minute (CPM) were measured using a MicroBeta microplate counter (PerkinElmer). Titration curves were plotted using Prism (GraphPad Prism 8.0.0.) and IC50 values were calculated.

[5] = Fig S12a, individual mice, AS-99 group
[6] = RNA-seq, MV4;11, 3 µM, seven days

G9a, sequence (Q96KQ7 whole entry, species assumed): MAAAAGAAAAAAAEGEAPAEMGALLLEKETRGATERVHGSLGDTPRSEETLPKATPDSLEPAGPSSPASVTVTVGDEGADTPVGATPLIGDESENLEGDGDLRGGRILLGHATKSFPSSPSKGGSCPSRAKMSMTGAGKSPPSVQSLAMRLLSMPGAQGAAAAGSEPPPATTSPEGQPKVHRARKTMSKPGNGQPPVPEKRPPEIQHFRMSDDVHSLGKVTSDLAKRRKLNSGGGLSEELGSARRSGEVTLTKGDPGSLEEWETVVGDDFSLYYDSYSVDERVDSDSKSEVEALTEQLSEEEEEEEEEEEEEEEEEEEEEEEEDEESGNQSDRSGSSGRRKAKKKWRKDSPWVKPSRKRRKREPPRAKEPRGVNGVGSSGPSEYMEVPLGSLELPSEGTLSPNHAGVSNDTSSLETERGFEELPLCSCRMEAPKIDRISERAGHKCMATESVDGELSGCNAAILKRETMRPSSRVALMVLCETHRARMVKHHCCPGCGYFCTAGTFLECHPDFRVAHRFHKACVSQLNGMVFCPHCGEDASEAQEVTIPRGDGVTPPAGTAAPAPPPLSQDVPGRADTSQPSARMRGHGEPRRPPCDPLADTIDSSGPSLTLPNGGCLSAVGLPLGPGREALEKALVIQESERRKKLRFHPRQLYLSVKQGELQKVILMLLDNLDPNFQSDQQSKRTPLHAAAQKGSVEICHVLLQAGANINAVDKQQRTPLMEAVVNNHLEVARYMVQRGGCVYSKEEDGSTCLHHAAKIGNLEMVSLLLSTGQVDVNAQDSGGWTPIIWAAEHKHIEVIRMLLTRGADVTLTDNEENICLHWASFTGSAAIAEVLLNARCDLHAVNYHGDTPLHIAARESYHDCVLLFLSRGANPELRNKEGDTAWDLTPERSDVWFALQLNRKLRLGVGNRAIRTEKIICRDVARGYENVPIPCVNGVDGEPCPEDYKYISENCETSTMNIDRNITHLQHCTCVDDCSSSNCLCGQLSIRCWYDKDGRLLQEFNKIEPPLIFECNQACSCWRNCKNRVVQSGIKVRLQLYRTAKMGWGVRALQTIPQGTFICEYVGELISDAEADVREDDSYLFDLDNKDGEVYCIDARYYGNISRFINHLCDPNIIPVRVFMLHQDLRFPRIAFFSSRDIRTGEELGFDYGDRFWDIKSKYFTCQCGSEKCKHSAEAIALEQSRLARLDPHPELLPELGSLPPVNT
PRMT4, sequence (Q86X55 whole entry, species assumed): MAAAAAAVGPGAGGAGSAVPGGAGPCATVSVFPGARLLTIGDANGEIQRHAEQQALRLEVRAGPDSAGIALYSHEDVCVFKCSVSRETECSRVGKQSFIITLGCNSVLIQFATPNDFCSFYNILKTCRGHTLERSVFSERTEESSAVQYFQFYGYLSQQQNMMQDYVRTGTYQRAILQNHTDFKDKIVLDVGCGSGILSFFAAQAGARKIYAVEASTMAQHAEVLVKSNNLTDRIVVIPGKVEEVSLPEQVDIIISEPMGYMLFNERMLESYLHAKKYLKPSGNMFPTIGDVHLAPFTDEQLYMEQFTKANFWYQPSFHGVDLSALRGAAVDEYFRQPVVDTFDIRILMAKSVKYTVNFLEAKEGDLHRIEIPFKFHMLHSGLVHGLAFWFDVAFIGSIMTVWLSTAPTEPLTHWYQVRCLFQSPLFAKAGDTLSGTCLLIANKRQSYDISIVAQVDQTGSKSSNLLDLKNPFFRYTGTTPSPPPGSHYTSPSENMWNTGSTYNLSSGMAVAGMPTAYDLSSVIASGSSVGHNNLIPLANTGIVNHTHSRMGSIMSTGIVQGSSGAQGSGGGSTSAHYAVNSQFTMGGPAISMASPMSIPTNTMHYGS
NSD1, sequence (Q96L73 whole entry, species assumed): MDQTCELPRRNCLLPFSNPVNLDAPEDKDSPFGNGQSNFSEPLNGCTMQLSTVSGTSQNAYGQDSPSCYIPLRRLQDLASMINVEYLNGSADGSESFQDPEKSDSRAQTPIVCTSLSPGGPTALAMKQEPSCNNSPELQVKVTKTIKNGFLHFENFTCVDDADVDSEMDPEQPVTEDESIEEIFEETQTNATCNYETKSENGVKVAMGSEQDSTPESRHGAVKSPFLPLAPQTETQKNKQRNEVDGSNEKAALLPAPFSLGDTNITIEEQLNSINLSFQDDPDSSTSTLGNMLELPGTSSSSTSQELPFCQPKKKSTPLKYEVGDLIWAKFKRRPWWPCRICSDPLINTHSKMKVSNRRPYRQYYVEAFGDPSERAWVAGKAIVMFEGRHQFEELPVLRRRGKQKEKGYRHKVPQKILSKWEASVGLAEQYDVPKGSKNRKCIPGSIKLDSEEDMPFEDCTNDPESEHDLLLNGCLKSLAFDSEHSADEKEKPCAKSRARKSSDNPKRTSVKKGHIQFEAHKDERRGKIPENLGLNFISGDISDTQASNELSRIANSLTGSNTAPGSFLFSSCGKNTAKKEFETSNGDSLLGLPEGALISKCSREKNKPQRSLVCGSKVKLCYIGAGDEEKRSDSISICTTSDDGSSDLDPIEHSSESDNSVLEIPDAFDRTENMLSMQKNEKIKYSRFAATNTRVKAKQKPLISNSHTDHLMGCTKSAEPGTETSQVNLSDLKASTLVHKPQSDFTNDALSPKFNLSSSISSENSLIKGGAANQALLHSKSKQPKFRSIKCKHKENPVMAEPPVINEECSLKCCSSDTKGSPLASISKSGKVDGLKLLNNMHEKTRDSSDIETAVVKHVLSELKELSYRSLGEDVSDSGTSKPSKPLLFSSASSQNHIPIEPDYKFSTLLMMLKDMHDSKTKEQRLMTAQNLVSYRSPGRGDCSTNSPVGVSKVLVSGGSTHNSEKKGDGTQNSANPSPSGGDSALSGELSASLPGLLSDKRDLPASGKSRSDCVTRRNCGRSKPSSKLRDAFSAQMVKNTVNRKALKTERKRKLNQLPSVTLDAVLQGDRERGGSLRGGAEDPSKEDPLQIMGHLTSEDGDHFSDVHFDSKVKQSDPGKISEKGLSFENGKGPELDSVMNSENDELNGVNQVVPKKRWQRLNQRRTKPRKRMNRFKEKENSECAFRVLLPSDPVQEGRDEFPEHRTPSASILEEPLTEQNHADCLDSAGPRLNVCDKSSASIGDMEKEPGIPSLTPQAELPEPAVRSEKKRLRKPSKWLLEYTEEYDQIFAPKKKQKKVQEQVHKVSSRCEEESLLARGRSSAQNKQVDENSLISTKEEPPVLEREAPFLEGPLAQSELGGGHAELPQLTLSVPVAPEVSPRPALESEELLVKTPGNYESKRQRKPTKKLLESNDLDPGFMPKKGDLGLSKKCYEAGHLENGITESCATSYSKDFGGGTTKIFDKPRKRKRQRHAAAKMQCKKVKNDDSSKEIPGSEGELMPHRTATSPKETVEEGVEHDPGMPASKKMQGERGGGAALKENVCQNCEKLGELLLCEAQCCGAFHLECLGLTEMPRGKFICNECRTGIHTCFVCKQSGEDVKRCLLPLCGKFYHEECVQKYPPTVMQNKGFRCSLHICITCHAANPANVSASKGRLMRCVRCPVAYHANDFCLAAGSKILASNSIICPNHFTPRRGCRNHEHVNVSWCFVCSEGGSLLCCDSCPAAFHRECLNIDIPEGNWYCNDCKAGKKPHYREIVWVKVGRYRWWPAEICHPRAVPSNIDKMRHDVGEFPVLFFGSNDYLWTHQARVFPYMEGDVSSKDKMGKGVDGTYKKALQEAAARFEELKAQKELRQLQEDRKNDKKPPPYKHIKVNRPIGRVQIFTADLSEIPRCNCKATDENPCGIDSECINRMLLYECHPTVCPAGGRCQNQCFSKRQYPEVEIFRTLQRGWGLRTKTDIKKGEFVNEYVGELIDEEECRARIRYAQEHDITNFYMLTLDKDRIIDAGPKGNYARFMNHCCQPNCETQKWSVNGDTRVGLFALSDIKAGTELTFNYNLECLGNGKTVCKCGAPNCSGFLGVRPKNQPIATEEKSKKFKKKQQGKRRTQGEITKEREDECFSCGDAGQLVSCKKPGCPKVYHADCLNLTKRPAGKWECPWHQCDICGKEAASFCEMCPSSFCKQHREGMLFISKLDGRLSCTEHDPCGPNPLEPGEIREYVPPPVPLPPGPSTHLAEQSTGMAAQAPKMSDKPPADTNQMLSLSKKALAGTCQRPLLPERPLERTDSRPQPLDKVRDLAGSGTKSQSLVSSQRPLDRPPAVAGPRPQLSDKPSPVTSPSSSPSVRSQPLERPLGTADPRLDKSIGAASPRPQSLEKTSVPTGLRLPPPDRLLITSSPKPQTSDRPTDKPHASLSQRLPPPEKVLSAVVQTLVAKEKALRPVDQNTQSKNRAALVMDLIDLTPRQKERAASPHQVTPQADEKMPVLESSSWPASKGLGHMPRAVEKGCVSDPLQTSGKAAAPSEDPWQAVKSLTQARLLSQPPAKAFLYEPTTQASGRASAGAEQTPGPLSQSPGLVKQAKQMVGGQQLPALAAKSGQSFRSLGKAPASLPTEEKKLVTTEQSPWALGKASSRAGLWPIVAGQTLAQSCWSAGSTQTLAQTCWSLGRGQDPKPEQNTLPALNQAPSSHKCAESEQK
SET7/9, sequence (Q8WTS6 whole entry, species assumed): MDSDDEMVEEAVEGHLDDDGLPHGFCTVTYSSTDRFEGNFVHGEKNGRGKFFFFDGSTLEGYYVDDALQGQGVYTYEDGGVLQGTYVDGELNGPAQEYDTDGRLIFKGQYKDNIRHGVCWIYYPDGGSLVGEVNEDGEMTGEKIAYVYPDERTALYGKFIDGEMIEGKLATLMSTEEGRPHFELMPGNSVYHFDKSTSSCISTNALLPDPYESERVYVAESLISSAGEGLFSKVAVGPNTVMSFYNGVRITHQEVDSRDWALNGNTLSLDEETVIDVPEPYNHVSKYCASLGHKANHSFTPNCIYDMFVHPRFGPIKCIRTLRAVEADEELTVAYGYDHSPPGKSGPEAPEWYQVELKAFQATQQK

Compound: CN1CC(C(=O)NCc2ccc3c(-c4cccc(C(N)=S)c4)cn(C4CCN(S(=O)(=O)C(F)(F)F)CC4)c3c2)C1 [AS-99]
- activity at 50 µM (PRMT4): 103%
- % activity (PRMT4; 50 µM): 110.439%
- activity at 50 µM (PRMT3): 106%
- % activity (PRMT3; 50 µM): 114.852%
- BAS [1, 5]: 0.02 x 103/uL (2×) and 0.03 x 103/uL (4×) and 0.01 x 103/uL (2×) and 0 x 103/uL
- EOS [1, 5]: 270 µL⁻¹ and 470 µL⁻¹ and 320 µL⁻¹ and 390 µL⁻¹ and 650 µL⁻¹ and 300 µL⁻¹ and 100 µL⁻¹ and 450 µL⁻¹ and 360 µL⁻¹
- HCT [1, 5]: 41.9% and 39.7% and 28.7% and 46% and 40.3% and 29.4% and 10.7% and 42.8% and 41.4%
- HGB [1, 5]: 13.7 g/dL and 13.1 g/dL and 9.8 g/dL and 15.6 g/dL and 13.9 g/dL and 10.1 g/dL and 3.6 g/dL and 14.6 g/dL and 14 g/dL
- LYM [1, 5]: 4070 µL⁻¹ and 5890 µL⁻¹ and 4140 µL⁻¹ and 5390 µL⁻¹ and 6000 µL⁻¹ and 3920 µL⁻¹ and 1230 µL⁻¹ and 6280 µL⁻¹ and 5970 µL⁻¹
- MCH [1, 5]: 14.8 Pg and 15 Pg (2×) and 15.6 Pg (3×) and 14.9 Pg and 15.4 Pg and 16.2 Pg
- MCHC [1, 5]: 32.8 g/dL and 33.1 g/dL and 34.1 g/dL (2×) and 33.9 g/dL and 34.4 g/dL (2×) and 34 g/dL and 33.8 g/dL
- MCV [1, 5]: 45.2 fL (3×) and 45.4 fL and 45.8 fL and 44 fL and 43.6 fL and 45.7 fL and 48 fL
- MONO [1, 5]: 0.17 x 103/uL and 0.23 x 103/uL (2×) and 0.12 x 103/uL and 0.28 x 103/uL (2×) and 0.11 x 103/uL and 0.05 x 103/uL and 0.2 x 103/uL
- MPV [1, 5]: 5 fL (2×) and 5.5 fL and 5.9 fL and 5.1 fL and 5.4 fL (2×) and 5.6 fL and 4.8 fL
- NEU [1, 5]: 970 µL⁻¹ and 1680 µL⁻¹ and 1330 µL⁻¹ and 2070 µL⁻¹ and 1910 µL⁻¹ and 1210 µL⁻¹ and 630 µL⁻¹ and 1870 µL⁻¹ and 1770 µL⁻¹
- PLT [1, 5]: 1548 K/uL and 1435 K/uL and 1241 K/uL and 1545 K/uL and 1340 K/uL and 938 K/uL and 317 K/uL and 1303 K/uL and 1383 K/uL
- RBC [1, 5]: 9.27 M/uL and 8.74 M/uL and 6.26 M/uL and 10.46 M/uL and 9.24 M/uL and 6.5 M/uL and 2.36 M/uL and 9.37 M/uL and 8.63 M/uL
- RDW [1, 5]: 14.4% and 15.6% and 15.4% and 13.5% and 14.9% and 13.9% and 14.7% and 14.8% and 18.3%
- WBC [1, 5]: 5.5 k/uL and 8.3 k/uL and 5.92 k/uL and 8.1 k/uL and 8.87 k/uL and 5.55 k/uL and 2.01 k/uL and 8.91 k/uL and 8.33 k/uL
- blood counts and other blood parameters versus vehicle ([1]; normal mice, 30 mg/kg, i.p., q.d., 14 days): no significant difference
- activity at 50 µM (NSD1): 112%
- % activity (NSD1; 50 µM): 113.763%
- K562 % CD11B+ cells (K562 cells; 2 uM): 0.43% and 0.58% and 0.36%
- K562 % CD11B+ cells (K562 cells; 4 uM): 0.34% and 0.52% and 0.4%
- K562 % CD11B+ cells (K562 cells; 6 uM): 0.56% and 0.39% and 0.38%
- K562 % CD11B+ cells (K562 cells; 8 uM): 0.73% and 0.97% and 0.76%
- differentiation effects in K562 (K562 cells; control leukemia cell line): not observed
- toxicity during the treatment period ([2]; 30 mg/kg, i.p., q.d., 14 days): No substantial toxicity
- body weight reduction ([2]; after 7 days of treatment, 30 mg/kg, i.p., q.d.): ~ 10%
- normalized body weight change ([2]; days of treatment 1): 100
- normalized body weight change ([2]; days of treatment 2): 95 and 98 and 97 and 96
- normalized body weight change ([2]; days of treatment 3): 94 and 98 and 96 and 99 and 95 and 102
- normalized body weight change ([2]; days of treatment 4): 95 and 96 and 97 and 100
- normalized body weight change ([2]; days of treatment 5): 95 and 89 and 93 and 87 and 100
- normalized body weight change ([2]; days of treatment 6): 90 and 100 and 94 and 87 and 93
- normalized body weight change ([2]; days of treatment 7): 85 and 89 and 87 and 94
- normalized body weight change ([2]; days of treatment 9): 91 and 93 and 95 and 87 and 90
- normalized body weight change ([2]; days of treatment 10): 91 and 98 and 96 and 89 and 95 and 87
- normalized body weight change ([2]; days of treatment 11): 91 and 96 and 94 and 97 and 100 and 99 and 89
- normalized body weight change ([2]; days of treatment 12): 95 and 103 and 87 and 88
- normalized body weight change ([2]; days of treatment 13): 89 and 95 and 94 and 96 and 105 and 90
- activity at 50 µM (G9a): 90.9%
- % activity (G9a; 50 µM): 91.9579%
- GSEA: transcriptional programs driven by MLL fusion proteins and HOXA9 (MV4;11 cells; MV4;11): downregulation of transcriptional programs driven by MLL fusion proteins and HOXA9
- number of downregulated genes (MV4;11 cells; [6]): 323
- number of up-regulated genes (MV4;11 cells; [6]): 75
- activity at 50 µM (SET7/9): 81.7%
- % activity (SET7/9; 50 µM): 85.3173%
- effect on colony number or morphology [3]: no effect on colony number or morphology
- colony counts ([3]; 3 uM): 70 and 68
- colony counts ([3]; 6 uM): 86 and 64
- activity at 50 µM (EZH2): 101%
- % activity (EZH2; 50 µM): 119.029%

- reduced inhibitory activity (thioamide of AS-99 replaced with amide) [4]: ~ 100 fold
- IC50 ([4]; IC50, HMT assay with nucleosomes as substrate, mean ± s.d. from two independent experiments): 72 µM
- % Ash1L activity ([4]; Log[compound] (M) -3): 8.534% and 3.267%
- % Ash1L activity ([4]; Log[compound] (M) -3.47712): 48.6163% and 37.7254%
- % Ash1L activity ([4]; Log[compound] (M) -3.95424): 56.4006% and 63.2923%
- % Ash1L activity ([4]; Log[compound] (M) -4.43136): 67.1309% and 48.4913%
- % Ash1L activity ([4]; Log[compound] (M) -4.90849): 72.7906% and 62.8102%
- % Ash1L activity ([4]; Log[compound] (M) -5.38561): 70.7731% and 79.0573%
- % Ash1L activity ([4]; Log[compound] (M) -5.86273): 90.948% and 119.086%
Compound: CN1CC(C(=O)NCc2ccc3c(-c4cccc(C(N)=O)c4)cn(C4CCN(S(=O)(=O)C(F)(F)F)CC4)c3c2)C1 [AS-nc]
